Measured values as given in patent US4409210A, “Antibiotic compound” (priority 1982, dated 1983).
Values after ≈ are worked out from the molar mass of the structure shown.

How the values were obtained:
Assay type in all cases: cell-based
[1] = test system: Veillonella parvula A20010; assay: MIC, serial two-fold dilution method (anaerobic); conditions: Veillonella parvula A20010; GAM agar medium; inoculum 10^7-10^8; read-out: minimum inhibitory concentration (MIC)
[2] = test system: Propionibacterium acnes A21933; assay: MIC, serial two-fold dilution method (anaerobic); conditions: Cutibacterium acnes; Propionibacterium acnes A21933; GAM agar medium; inoculum 10^7-10^8; read-out: minimum inhibitory concentration (MIC)
[3] = test system: Bacteroides fragilis A20926; assay: MIC, serial two-fold dilution method (anaerobic); conditions: Bacteroides fragilis A20926; GAM agar medium; inoculum 10^7-10^8; read-out: minimum inhibitory concentration (MIC)
[4] = test system: Propionibacterium acnes A21953; assay: MIC, serial two-fold dilution method (anaerobic); conditions: Cutibacterium acnes; Propionibacterium acnes A21953; GAM agar medium; inoculum 10^7-10^8; read-out: minimum inhibitory concentration (MIC)
[5] = test system: Clostridium perfringens A9635; assay: microbe, parasite or virus in culture; conditions: Clostridium perfringens, A9635, read-out: minimum inhibitory concentration (MIC)
[6] = test system: Bacteroides fragilis A22695; assay: MIC, serial two-fold dilution method (anaerobic); conditions: Bacteroides fragilis A22695; GAM agar medium; inoculum 10^7-10^8; read-out: minimum inhibitory concentration (MIC)
[7] = test system: Bacteroides fragilis A20928-1; assay: MIC, serial two-fold dilution method (anaerobic); conditions: A209281; Bacteroides fragilis A20928-1; GAM agar medium; inoculum 10^7-10^8; read-out: minimum inhibitory concentration (MIC)
[8] = test system: Clostridium cylindrosporum A9562; assay: MIC, serial two-fold dilution method (anaerobic); conditions: Clostridium cylindrosporum A9562; GAM agar medium; inoculum 10^7-10^8; read-out: minimum inhibitory concentration (MIC)
[9] = test system: Fusobacterium nucleatum A21906; assay: MIC, serial two-fold dilution method (anaerobic); conditions: Fusobacterium nucleatum A21906; GAM agar medium; inoculum 10^7-10^8; read-out: minimum inhibitory concentration (MIC)
[10] = test system: Bacteroides ovatus A22400; assay: MIC, serial two-fold dilution method (anaerobic); conditions: Bacteroides ovatus A22400; GAM agar medium; inoculum 10^7-10^8; read-out: minimum inhibitory concentration (MIC)
[11] = test system: Clostridium acidiurici A9560; assay: MIC, serial two-fold dilution method (anaerobic); conditions: Gottschalkia acidurici; Clostridium acidiurici A9560; GAM agar medium; inoculum 10^7-10^8; read-out: minimum inhibitory concentration (MIC)
[12] = test system: Bacteroides fragilis A22053; assay: MIC, serial two-fold dilution method (anaerobic); conditions: Bacteroides fragilis A22053; GAM agar medium; inoculum 10^7-10^8; read-out: minimum inhibitory concentration (MIC)
[13] = test system: Propionibacterium acnes A22650; assay: MIC, serial two-fold dilution method (anaerobic); conditions: Cutibacterium acnes; Propionibacterium acnes A22650; GAM agar medium; inoculum 10^7-10^8; read-out: minimum inhibitory concentration (MIC)
[14] = test system: Bacteroides fragilis A20929; assay: MIC, serial two-fold dilution method (anaerobic); conditions: Bacteroides fragilis A20929; GAM agar medium; inoculum 10^7-10^8; read-out: minimum inhibitory concentration (MIC)
[15] = test system: Bacteroides fragilis A21900; assay: MIC, serial two-fold dilution method (anaerobic); conditions: Bacteroides fragilis A21900; GAM agar medium; inoculum 10^7-10^8; read-out: minimum inhibitory concentration (MIC)
[16] = test system: Peptostreptococcus intermedius A21881; assay: MIC, serial two-fold dilution method (anaerobic); conditions: Peptostreptococcus intermedius A21881; GAM agar medium; inoculum 10^7-10^8; read-out: minimum inhibitory concentration (MIC)
[17] = test system: Clostridium septicum A21869; assay: MIC, serial two-fold dilution method (anaerobic); conditions: Clostridium septicum A21869; GAM agar medium; inoculum 10^7-10^8; read-out: minimum inhibitory concentration (MIC)
Method: (§1) The minimum inhibitory concentration (MIC) of Bu-2517 was determined for a variety of aerobic and anaerobic bacteria by the serial two-fold dilution method using a multi-inoculating apparatus. Mueller-Hinton agar was generally used for aerobic bacteria, GC medium (Eiken) for fastidious aerobic organisms such as streptococci, Neisseria and Haemophilus species, and GAM agar medium (Nissui) for anaerobic bacteria. The inoculum size was adjusted to 10^6 CFU/ml for streptococci, Neisseria and Haemophilus species, 10^4 for other aerobic bacteria and 10^7 -10^8 for all anaerobic organisms. Amphomycin, ampicillin, chloramphenicol, clindamycin, erthromycin, kanamycin and vancomycin were used as reference antibiotics.

[18] = test system: Clostridium chauvoei A9561; assay: MIC, serial two-fold dilution method (anaerobic); conditions: Clostridium chauvoei A9561; GAM agar medium; inoculum 10^7-10^8; read-out: minimum inhibitory concentration (MIC)
Method: as §1

[19] = test system: Clostridium difficile A21972; assay: MIC, serial two-fold dilution method (anaerobic); conditions: Clostridioides difficile; Clostridium difficile A21972; GAM agar medium; inoculum 10^7-10^8; read-out: minimum inhibitory concentration (MIC)
Method: as §1

[20] = test system: Clostridium difficile A21675; assay: MIC, serial two-fold dilution method (anaerobic); conditions: Clostridioides difficile; Clostridium difficile A21675; GAM agar medium; inoculum 10^7-10^8; read-out: minimum inhibitory concentration (MIC)
Method: as §1

[21] = test system: Clostridium ramosum A21970; assay: MIC, serial two-fold dilution method (anaerobic); conditions: Thomasclavelia ramosa; Clostridium ramosum A21970; GAM agar medium; inoculum 10^7-10^8; read-out: minimum inhibitory concentration (MIC)
[22] = test system: Peptococcus magnas A21676; assay: MIC, serial two-fold dilution method (anaerobic); conditions: Peptococcus magnas A21676; GAM agar medium; inoculum 10^7-10^8; read-out: minimum inhibitory concentration (MIC)
[23] = test system: Peptostreptococcus anaerobius A21905; assay: MIC, serial two-fold dilution method (anaerobic); conditions: Peptostreptococcus anaerobius A21905; GAM agar medium; inoculum 10^7-10^8; read-out: minimum inhibitory concentration (MIC)
[24] = test system: Bacteroides fragilis A22533; assay: MIC, serial two-fold dilution method (anaerobic); conditions: Bacteroides fragilis A22533; GAM agar medium; inoculum 10^7-10^8; read-out: minimum inhibitory concentration (MIC)
[25] = test system: Fusobacterium necrophorum A20013; assay: MIC, serial two-fold dilution method (anaerobic); conditions: Fusobacterium necrophorum A20013; GAM agar medium; inoculum 10^7-10^8; read-out: minimum inhibitory concentration (MIC)
[26] = test system: Bacteroides fragilis CUH-24; assay: MIC, serial two-fold dilution method (anaerobic); conditions: CUH24; Bacteroides fragilis CUH-24; GAM agar medium; inoculum 10^7-10^8; read-out: minimum inhibitory concentration (MIC)
[27] = test system: Fusobacterium varium ATCC 8501; assay: MIC, serial two-fold dilution method (anaerobic); conditions: ATCC8501; Fusobacterium varium ATCC 8501; GAM agar medium; inoculum 10^7-10^8; read-out: minimum inhibitory concentration (MIC)
[28] = test system: Veillonella alcalescens A21914-1; assay: MIC, serial two-fold dilution method (anaerobic); conditions: Veillonella parvula, A219141; Veillonella alcalescens A21914-1; GAM agar medium; inoculum 10^7-10^8; read-out: minimum inhibitory concentration (MIC)
[29] = test system: Clostridium perfringens A22787; assay: microbe, parasite or virus in culture; conditions: Clostridium perfringens, A22787, read-out: minimum inhibitory concentration (MIC)
[30] = test system: Bacteroides fragilis CUH-9; assay: MIC, serial two-fold dilution method (anaerobic); conditions: CUH9; Bacteroides fragilis CUH-9; GAM agar medium; inoculum 10^7-10^8; read-out: minimum inhibitory concentration (MIC)

CCC[C@@H]1C[C@@H](C(=O)N[C@@H]([C@H]2O[C@H](SC)[C@H](O)[C@@H](O)[C@H]2O)[C@H](C)Cl)N(C)C1 [Clindamycin]
MIC [1]: 0.4 µg/mL (≈ 0.941 µM) | MIC [2]: 0.8 µg/mL (≈ 1.88 µM) | MIC [3]: 0.025 µg/mL (≈ 0.0588 µM) | MIC [4]: 0.8 µg/mL (≈ 1.88 µM) | MIC [5]: 0.025 µg/mL (≈ 0.0588 µM) | MIC [6]: 0.1 µg/mL (≈ 0.235 µM) | MIC [7]: 0.025 µg/mL (≈ 0.0588 µM) | MIC [8]: 0.8 µg/mL (≈ 1.88 µM) | MIC [9]: 1.6 µg/mL (≈ 3.76 µM) | MIC [10]: 6.3 µg/mL (≈ 14.8 µM) | MIC [11]: 0.8 µg/mL (≈ 1.88 µM) | MIC [12]: 0.2 µg/mL (≈ 0.471 µM) | MIC [13]: 0.1 µg/mL (≈ 0.235 µM) | MIC [14]: 3.1 µg/mL (≈ 7.29 µM) | MIC [15]: 1.6 µg/mL (≈ 3.76 µM) | MIC [16]: 0.2 µg/mL (≈ 0.471 µM) | MIC [17]: 0.8 µg/mL (≈ 1.88 µM) | MIC [18]: 0.025 µg/mL (≈ 0.0588 µM) | MIC [19]: 0.025 µg/mL (≈ 0.0588 µM) | MIC [20]: 100 µg/mL (≈ 235 µM) | MIC [21]: 0.025 µg/mL (≈ 0.0588 µM) | MIC [22]: 0.05 µg/mL (≈ 0.118 µM) | MIC [23]: 0.2 µg/mL (≈ 0.471 µM) | MIC [24]: 0.025 µg/mL (≈ 0.0588 µM) | MIC [25]: 12.5 µg/mL (≈ 29.4 µM) | MIC [26]: > 100 µg/mL | MIC [27]: 1.6 µg/mL (≈ 3.76 µM) | MIC [28]: 0.013 µg/mL (≈ 0.0306 µM) | MIC [29]: 50 µg/mL (≈ 118 µM) | MIC [30]: 50 µg/mL (≈ 118 µM)
